Data reported in US20150216865A1, “METHODS OF TREATING A BRUTON'S TYROSINE KINASE DISEASE OR DISORDER” (Celgene Avilomics Research, Inc., priority 2012, published 2015).
“Also recorded” adds a separate entry of the source. Marks after values point to notes of the source that are not given here.

Assays:
[1] = tested on: TNF-a; assay: Inflammatory chemokine and cytokine analysis in CIA mice, TNF-a; assay type: in vivo, mouse
Method: Inflammatory Chemokine and Cytokine Analysis: At the termination of the CIA study, mice were sacrificed and blood was harvested via cardiac punch using EDTA as an anticoagulant. Following centrifugation, serum was diluted 1:4 with a mouse serum diluents kit (BioRad cat#171-305004). Levels of various mouse cytokines in plasma were quantified using Bioplex® Suspension Array System according to manufacturer's instruction (BioRad, mTNFa (171-G5023M), mIL-6 (171-G5007M), mKC (171-G5018M), mIFNg (171-G5017M), mIL-17 (Z60-00006Z2), mIL-1β (171-G5002M), mMCP-1 (171-G5019M).

[2] = Clinical single dose study in healthy human volunteers, pharmacokinetics; assay type: in vivo; settings: single oral 2 mg/kg
Method: Clinical Study: A double blind, placebo-controlled, ascending single dose, randomized study in normal healthy human volunteers was conducted at a single clinical research unit in accordance with Declaration of Helsinki principles. Informed consent statements were obtained from all subjects prior to inclusion in the study. Subjects were admitted to the unit 1 day before dosing and discharged 96 h after dosing.

[3] = tested on: male NOD mice; assay: NOD mouse model of Sjogren's syndrome, glycaemia / incidence of diabetes; assay type: in vivo
Method: Non-Obese Diabetic Mouse (NOD) Model of Sjogren's Syndrome. Male Non Obese Diabetic (NOD) mice from the KWS BioTest NOD colony and male BALB/c mice were randomly allocated to experimental groups and allowed to acclimatise for one week prior to the beginning of the study. From six weeks of age, animals were treated according to the administration schedule in Table 5, below. Each group consisted of n=12 animals. The administration volume was 15 ml/kg from 6-12 weeks of age. The administration volume was then decreased to 10 ml/kg from 13-20 weeks of age. The vehicle was distilled water pH 3.0-3.5 for Group 7. […] Glycaemia. From fourteen weeks of age, animals were monitored weekly for signs of hyperglycaemia. A blood sample was taken from a superficial vein and the blood glucose level was measured using Free Style Optium glucose test strips (Abbott) and a Boots glucose reader. Glycaemia. Blood glucose was monitored once per week from 14 weeks of age. Animals with glycaemia equal to or greater than 11 mM on two consecutive weekly readings were considered diabetic.

[4] = tested on: male NOD mice; assay: NOD mouse model, lachrymal gland secretion (cotton thread test); assay type: in vivo; settings: besylate
Method: (§1) Non-Obese Diabetic Mouse (NOD) Model of Sjogren's Syndrome. Male Non Obese Diabetic (NOD) mice from the KWS BioTest NOD colony and male BALB/c mice were randomly allocated to experimental groups and allowed to acclimatise for one week prior to the beginning of the study. From six weeks of age, animals were treated according to the administration schedule in Table 5, below. Each group consisted of n=12 animals. The administration volume was 15 ml/kg from 6-12 weeks of age. The administration volume was then decreased to 10 ml/kg from 13-20 weeks of age. The vehicle was distilled water pH 3.0-3.5 for Group 7. The vehicle was 0.5% methylcellulose and 0.25% Tween® 80 for all other groups.
Measurement of lachrymal gland secretion. Lachrymal gland secretion was measured every other week from six weeks of age using a cotton thread test. Briefly, animals were anaesthetised and a fluorescein-stained cotton thread was inserted under the eye lid in the medial canthus region and held in place for two minutes. Results for each group were graphed and presented with SEM's.
Lachrymal Gland Secretion. Lachrymal gland secretion was measured by the cotton thread test. Data are expressed as millimetres per gram bodyweight. Data from this readout are indicative of inflammatory changes in the lachrymal gland, but significant changes are typically only seen from weeks 18 onwards in NOD mice. Data were analysed by two-way ANOVA for repeated measures followed by Dunnett's post-test for multiple comparisons to the vehicle-treated group and presented as mean±SEM (FIG. 14).

[5] = tested on: male NOD mice; assay: NOD mouse model, salivary gland secretion (pilocarpine-induced salivation assay); assay type: in vivo; settings: all treatment groups
Method: as §1
Measurement of salivary gland secretion. Salivary gland secretion was measured every other week from six weeks of age. […] The weight of saliva collected was then measured using digital scales. […]
Salivary Gland Secretion. Salivary gland secretion was measured using the pilocarpine-induced salivation assay. Data are expressed as milligram of saliva per gram bodyweight. Data from this readout are indicative of inflammatory changes in the salivary glands, but significant changes are typically only seen from weeks 18 onwards in NOD mice. […] Data were analysed by two-way ANOVA followed by Dunnett's post-test for multiple comparisons to the vehicle-treated group (FIG. 16).

[6] = tested on: male NOD mice; assay: NOD mouse model, salivary gland histopathology; assay type: in vivo; settings: 20 weeks of age
Description: Histopathology. Samples of lachrymal gland and salivary glands from all animals were fixed for Haematoxylin & Eosin histological analysis. Sections were inspected blind by a qualified histopathologist and scored for signs of pathology according to a semi-quantitative scoring system. This system is based on the mean number of inflammatory foci comprising 50 or more mononuclear inflammatory cells per objective field. The ratio of infiltrated to normal glandular tissue was expressed on a five point scale.
(i) Focus Score. The mean number of inflammatory foci comprising ≧50 mononuclear inflammatory cells per ×10 objective field was counted. Five such fields were assessed (where possible) to derive this index and these are selected to contain the maximum number of such foci. Where the overall area of the tissue section was less than five fields, the number of ×10 objective fields was recorded and used to determine the focus score. (ii) Area Score. The ratio of infiltrated to normal glandular tissue was expressed on a five point scale: • 0: No infiltrates • 1: 0-25% of the tissue section infiltrated • 2: 26-50% of the tissue section infiltrated • 3: 51-75% of the tissue section infiltrated • 4: 76-100% of the tissue section infiltrated
Salivary Gland Histopathology. […] Sections were examined and scored for two criteria: Focus Score and Area Score as outlined above.

For `C=CC(=O)Nc1cccc(Nc2nc(Nc3ccc(OCCOC)cc3)ncc2F)c1` [Compound 1 besylate, N-(3-(5-fluoro-2-(4-(2-methoxyethoxyl)phenylamino)pyrimidin-4-ylamino)phenyl)acrylamide besylate], which TNF-a mean ([1]; 3 mg/kg) is on record?
Its TNF-a mean is 160.2 pg/mL.

And the TNF-a mean ([1]; 10 mg/kg)?
The TNF-a mean was 123.0* pg/mL.

What about the TNF-a mean ([1]; 30 mg/lkg) of the same molecule?
The TNF-a mean was 117.0* pg/mL.

And the Cmax ([2]; plasma, 6 subjects, read-out: mean maximum plasma concentration (Cmax))?
Its Cmax is 542 ng/mL.

And the half-life ([2]; plasma, read-out: median terminal elimination half-life (converted))?
The half-life was 1.9 h.

And the “time to peak plasma concentrations” value [2]?
The value was 30 to 120 min.

And the “plasma concentrations at 48 hours post dose” value ([2]; all subjects)?
The value was “below the lower limit of quantification”.

And the “plasma concentrations within 24 hours post dose” value ([2]; limit of detection 0.1 ng/mL)?
The value was “near or below the lower limit of detection”.

What about the “Incidence of Diabetes” value ([3]; 0.16 mg/kg ad libitum, age 18 weeks) of the same molecule?
The value was 8% (1/12).

What about the “Incidence of Diabetes” value ([3]; 0.16 mg/kg ad libitum, age 19 weeks) of the same molecule?
The value was 17% (2/12).

And the “Incidence of Diabetes” value ([3]; 0.16 mg/kg ad libitum, age 20 weeks)?
Its value is 17% (2/12).

And the “Incidence of Diabetes” value ([3]; 10 mg/kg SID, age 18 weeks)?
Its value is 17% (2/12).

What about the “Incidence of Diabetes” value ([3]; 10 mg/kg SID, age 19 weeks) of the same molecule?
Its value is 17% (2/12).

And the “Incidence of Diabetes” value ([3]; 10 mg/kg SID, age 20 weeks)?
Its value is 18% (2/11).

What about the “Incidence of Diabetes” value ([3]; 30 mg/kg SID, age 18 weeks) of the same molecule?
Its value is 0.

What about the “Incidence of Diabetes” value ([3]; 30 mg/kg SID, age 19 weeks) of the same molecule?
Its value is 0.

What about the “Incidence of Diabetes” value ([3]; 30 mg/kg SID, age 20 weeks) of the same molecule?
The value was 0.

What about the “Incidence of Diabetes” value ([3]; 50 mg/kg BID, age 18 weeks) of the same molecule?
Its value is 0.

And the “Incidence of Diabetes” value ([3]; 50 mg/kg BID, age 19 weeks)?
Its value is 0.

What about the “Incidence of Diabetes” value ([3]; 50 mg/kg BID, age 20 weeks) of the same molecule?
Its value is 0.

And the “Incidence of Diabetes” value ([3]; 100 mg/kg SID, age 18 weeks)?
Its value is 0.

What about the “Incidence of Diabetes” value ([3]; 100 mg/kg SID, age 19 weeks) of the same molecule?
Its value is 0.

And the “Incidence of Diabetes” value ([3]; 100 mg/kg SID, age 20 weeks)?
The value was 0.

And the “lachrymal gland secretion vs vehicle” value ([4]; 30 mg/kg SID, 10, 18 and 20 weeks of age)?
Its value is “significantly higher; also recorded: statistically significant increase”.

What about the “lachrymal gland secretion vs vehicle” value ([4]; 50 mg/kg twice daily, 6, 8, 10, 18 and 20 weeks of age) of the same molecule?
The value was “significantly higher; also recorded: statistically significant increase”.

And the “lachrymal gland secretion vs vehicle” value ([4]; 100 mg/kg SID, 8, 10, 12, 16, 18 and 20 weeks of age)?
Its value is “significantly higher; also recorded: statistically significant increase”.

What about the “lachrymal gland secretion vs vehicle” value ([4]; ad libitum 0.16 mg/ml in drinking water, 10, 16, 18 and 20 weeks of age) of the same molecule?
The value was “significantly higher; also recorded: statistically significant increase”.

What about the “salivary gland secretion between groups” value [5] of the same molecule?
The value was “No significant differences”.

What about the “salivary gland Area Score (proportion of infiltrated glandular tissue) vs vehicle” value [6] of the same molecule?
Its value is “did not reduce”.

What about the “salivary gland Focus Score (number of inflammatory foci) vs vehicle” value [6] of the same molecule?
Its value is “did not reduce”.
